Data taken from patent US5278161A, “Amino acid derivatives useful as renin inhibitors” (Hoffmann-La Roche Inc., priority 1990, dated 1994).

The molecules below were run against T1, human renin (Homo sapiens, UniProt P00797) (assay: In vitro test with pure human renin (inhibition of angiotensin I production from human tetradecapeptide renin substrate, RIA)). Conditions: pH 7.4 buffer, hTD substrate, three hours at 37° C., angiotensin I by RIA.
T1 sequence (P00797 67-406): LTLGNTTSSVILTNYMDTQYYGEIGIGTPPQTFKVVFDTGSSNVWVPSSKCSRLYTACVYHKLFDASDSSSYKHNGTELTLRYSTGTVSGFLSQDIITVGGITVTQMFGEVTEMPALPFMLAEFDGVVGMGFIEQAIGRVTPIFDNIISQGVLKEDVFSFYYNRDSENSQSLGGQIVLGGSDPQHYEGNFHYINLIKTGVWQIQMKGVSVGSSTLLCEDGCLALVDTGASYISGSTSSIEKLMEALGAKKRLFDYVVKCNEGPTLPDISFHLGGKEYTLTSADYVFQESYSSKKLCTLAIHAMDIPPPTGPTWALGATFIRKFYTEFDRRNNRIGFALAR
Assay type: biochemical
Description: IN VITRO TEST WITH PURE HUMAN RENIN
The test is carried out in Eppendorf test tubes. The incubation mixture consists of (1) 100 μl of human renin in buffer A (0.1M sodium phosphate solution, pH 7.4, containing 0.1% bovine serum albumin, 0.1% sodium azide and 1 mM ethylenediaminetetraacetic acid), sufficient for a renin activity of 2-3 ng of angiotensin I/ml/hr.; (2) 145 μl of buffer A; (3) 30 μl of 10 μM human tetradecapeptide renin substrate (hTD) in 10 mM hydrochloric acid; (4) 15 μl of dimethyl sulphoxide with or without inhibitor and (5) 10 μl of a 0.03 molar solution of hydroxyquinoline sulphate in water.
The samples are incubated for three hours at 37° C. or 4° C. in triplicate. 2×100 μl samples per experimental test tube are used in order to measure the production of angiotensin I via RIA (standard radioimmunoassay; clinical assay solid phase kit). Cross reactivities of the antibody used in the RIA are: angiotensin I 100%; angiotensin II 0.0013%; hTD (angiotensin I-Val-Ile-His-Ser-OH) 0.09%. The production of angiotensin I is determined by the difference between the experiment at 37° C. and that at 4° C.
The following controls are carried out:
(a) Incubation of hTD samples without renin and without inhibitor at 37° C. and 4° C. The difference between these two values gives the base value of the angiotensin I production.
(b) Incubation of hTD samples with renin, but without inhibitor at 37° C. and 4° C. The difference between these values gives the maximal value of angiotensin I production.
In each sample the base value of the angiotensin I production is subtracted from the angiotensin I production which is determined. The difference between the maximal value and the base value gives the value of the maximal substrate hydrolysis (=100%) by renin.
The results are given as IC50 values which denote that concentration of the inhibitor at which the enzymatic activity is inhibited by 50%. The IC50 values are determined from a linear regression curve from a logit-log plot.

Row | Structure (SMILES) | IC50
1 | CCCc1nc(-c2cccnc2)cn2c(C(Cc3cccnc3)C(=O)N[C@@H](CC3CCCCC3)[C@@H](O)[C@@H](O)CC(C)C)nnc12 (single isomer, unassigned) [D, (R or S)-N-[(1S,2R,3S)-1-(cyclohexylmethyl)-2,3-dihydroxy-5-methylhexyl]-8-propyl-6-(3-pyridyl)-α-(3-pyridylmethyl)-s-triazolo[4,3-a]pyrazine-3-acetamide] | 57 nM
2 | CC(C)c1nc(-c2cccnc2)cn2c(C(Cc3c[nH]cn3)C(=O)N[C@@H](CC3CCCCC3)[C@@H](O)[C@@H](O)C3CC3)nnc12 (single isomer, unassigned) [B, (R or S)-N-[(1S,2R,3S)-1-(cyclohexylmethyl)-3-cyclopropyl-2,3-dihydroxypropyl]-8-isopropyl-α-(imidazol-4-ylmethyl)-6-(3-pyridyl)-s-triazolo[4,3-a]pyrazine-3-acetamide] | 43 nM
3 | CCCc1nc(-c2cccnc2)cn2c(C(C(=O)N[C@@H](CC3CCCCC3)[C@@H](O)[C@@H](O)C3CC3)c3cccnc3)nnc12 (single isomer, unassigned) [A, (R or S)-N-[(1S,2R,3S)-1-(Cyclohexylmethyl)-3-cyclopropyl-2,3-dihydroxypropyl]-8-propyl-α,6-bis(3-pyridyl)-s-triazolo[4,3-a]pyrazine-3-acetamide] | 61 nM

Continued by falling IC50, values first:

Row | IC50 | Structure (SMILES)
4 | 48 nM | CCC(C)c1nc(-c2cccnc2)cn2c(C(Cc3cccnc3)C(=O)N[C@@H](CC3CCCCC3)[C@@H](O)[C@@H](O)C3CC3)nnc12 (single isomer, unassigned) [E, (S or R)-N-[(1S,2R,3S)-1-(cyclohexylmethyl)-3-cyclopropyl-2,3-dihydroxypropyl]-8-[(RS)-1-methylpropyl]-α-(3-pyridylmethyl)-6-(3-pyridyl)-s-triazolo[4,3-a]pyrazine-3-acetamide]
5 | 42 nM | CC(C)Cc1nc(-c2cccnc2)cn2c(C(Cc3cnc[nH]3)C(=O)N[C@@H](CC3CCCCC3)[C@@H](O)[C@@H](O)C3CC3)nnc12 (single isomer, unassigned) [C]
6 | 11 nM | CCC(C)c1nc(-c2cccnc2)cn2c(C(=O)N[C@@H](CC3CCCCC3)[C@@H](O)[C@@H](O)C3CC3)nnc12 (mixture of isomers) [F, N-[(1S,2R,3S)-1-(cyclohexylmethyl)-3-cyclopropyl-2,3-dihydroxypropyl]-8-[(RS)-1-methylpropyl]-6-(3-pyridyl)-s-triazolo[4,3-a]pyrazine-3-carboxamide]
